Patent publication US10072017B2, “Compounds and methods for the treatment of cystic fibrosis” (Flatley Discovery Lab, LLC, priority 2015, dated 2018)

Biological target: T1, CFTR (Homo sapiens, UniProt P13569, DEL508-508)
T1 construct: Primary CF airway epithelial cells were obtained from the UNC Cystic Fibrosis Tissue Procurement and Cell Culture Core; host or cells: primary CF airway epithelial cells
Test: Equivalent current assay in Primary CF airway epithelial cells (NAUC)
Format: cell-based
Details: 24 h, normalized to VX809 (3 μM) positive control; for Nauc @ 3 μM: 3 μM test compound; for Nauc @ 10 μM: 10 μM test compound
Protocol: Primary CF airway epithelial cells were obtained from the UNC Cystic Fibrosis Tissue Procurement and Cell Culture Core. The cells are grown at 37° C. in a Heracell 150i incubator using growth media (BEGM, Fischer). Cells were then transferred to differentiation media (ALI, UNC) for a minimum of 4 weeks on coated Costar snapwells. Two days before the Ussing assay the mucus on the apical surface of the cells was aspirated after incubating with 200 μL of differentiation Media for at least thirty (30) minutes. One day before the Ussing assay test compounds were added to the basolateral surface of the cells at various test concentrations dissolved in DMSO. Duplicate wells were prepared giving a n=3 or n=4 protocol.
Cells were treated for 24 hours with various combinations and concentrations of the test articles, reference standard (3 μM VX809, positive control). Compounds stock solutions were prepared in DMSO and diluted 1/1000 into ALI media to their final assay concentration. Cells were treated with combination solutions (2 mL of each dilution) and incubated at 37° C. for 24 h.
For the equivalent current assay, cells on four Transwell (24-well) plates were treated. Each Transwell plate was filled with 200 μl of HBS on the apical surface and 2 ml on the basolateral surface. Plates were placed horizontally in a heated mount at 37° C., and equilibrated for several minutes. Resting current was measured for 15 min and then blocked by the apical addition of 5 μM benzamil. After 20 min, 10 μM forskolin and 1 μM VX770 were added to both the apical and basolateral side to stimulate CFTR. An increase in chloride current is seen as an upward deflection of the trace. After another 30 min, CFTR-172 (a CFTR inhibitor, 20 μM) and/or bumetanide (20 uM) was added to block CFTR mediated chloride current.
The raw data, current vs. time for the Ussing chamber (sampling interval: 10 s) and voltage vs. time and resistance vs. time for the equivalent current assay (sampling interval: 5 minutes) were transferred to Excel (Microsoft Office Professional, version 14.0.7106.5003) for analysis. CFTR specific current was measured as the average amplitude of the increase in current elicited upon addition forskolin and ending upon addition of the CFTR channel specific blocker CFTR-172. This average is equivalent to the sum of the average forskolin activated and the average VX770-potentiated currents. The average current measured in vehicle (0.1% DMSO) treated cells, Iv, was subtracted from the current for the test article, ITA, or from the corrector reference standard VX809 (3 uM ISTD. For replicate measurements, the average vehicle subtracted response for the test article, was normalized to the average vehicle subtracted inhibitor response of the reference corrector VX809 (3 μM). INSC=(ITA−IV)(ave)/(ISTD−IV)(ave) (Equation 1)
A second endpoint, for the equivalent current assay, evaluated was NAUC, the normalized area under the curve (AUC) measuring the response after addition of forskolin and VX770 to the time point right before the addition of the CFTR inhibitor. The AUC is effectively the average response multiplied by the duration of the response. The AUC of the test article, AUCTA was then corrected by subtracting the average vehicle response, AUCV,ave over the same time range, and normalized as for the inhibitor-sensitive current to the difference of the corrector reference standard VX809 (3 μM VX809r,ave and the vehicle response: NAUCTA=[AUCTA−AUCV,ave]/[AUCVx809r,ave−AUCV,ave] (Equation 2).
The normalized value for DMSO is 0.0 and for VX-809 alone is 1.0. Combinations of compounds with VX-809 that give normalized values greater than 1.0 show activity in the combination assay. A value of 2 means the test compound doubles the effect to VX-809 alone.
Experiments were run with a minimum of n=4 replicates per concentration. […]

T1 sequence (P13569 with tags, fused parts or gaps DEL508-508): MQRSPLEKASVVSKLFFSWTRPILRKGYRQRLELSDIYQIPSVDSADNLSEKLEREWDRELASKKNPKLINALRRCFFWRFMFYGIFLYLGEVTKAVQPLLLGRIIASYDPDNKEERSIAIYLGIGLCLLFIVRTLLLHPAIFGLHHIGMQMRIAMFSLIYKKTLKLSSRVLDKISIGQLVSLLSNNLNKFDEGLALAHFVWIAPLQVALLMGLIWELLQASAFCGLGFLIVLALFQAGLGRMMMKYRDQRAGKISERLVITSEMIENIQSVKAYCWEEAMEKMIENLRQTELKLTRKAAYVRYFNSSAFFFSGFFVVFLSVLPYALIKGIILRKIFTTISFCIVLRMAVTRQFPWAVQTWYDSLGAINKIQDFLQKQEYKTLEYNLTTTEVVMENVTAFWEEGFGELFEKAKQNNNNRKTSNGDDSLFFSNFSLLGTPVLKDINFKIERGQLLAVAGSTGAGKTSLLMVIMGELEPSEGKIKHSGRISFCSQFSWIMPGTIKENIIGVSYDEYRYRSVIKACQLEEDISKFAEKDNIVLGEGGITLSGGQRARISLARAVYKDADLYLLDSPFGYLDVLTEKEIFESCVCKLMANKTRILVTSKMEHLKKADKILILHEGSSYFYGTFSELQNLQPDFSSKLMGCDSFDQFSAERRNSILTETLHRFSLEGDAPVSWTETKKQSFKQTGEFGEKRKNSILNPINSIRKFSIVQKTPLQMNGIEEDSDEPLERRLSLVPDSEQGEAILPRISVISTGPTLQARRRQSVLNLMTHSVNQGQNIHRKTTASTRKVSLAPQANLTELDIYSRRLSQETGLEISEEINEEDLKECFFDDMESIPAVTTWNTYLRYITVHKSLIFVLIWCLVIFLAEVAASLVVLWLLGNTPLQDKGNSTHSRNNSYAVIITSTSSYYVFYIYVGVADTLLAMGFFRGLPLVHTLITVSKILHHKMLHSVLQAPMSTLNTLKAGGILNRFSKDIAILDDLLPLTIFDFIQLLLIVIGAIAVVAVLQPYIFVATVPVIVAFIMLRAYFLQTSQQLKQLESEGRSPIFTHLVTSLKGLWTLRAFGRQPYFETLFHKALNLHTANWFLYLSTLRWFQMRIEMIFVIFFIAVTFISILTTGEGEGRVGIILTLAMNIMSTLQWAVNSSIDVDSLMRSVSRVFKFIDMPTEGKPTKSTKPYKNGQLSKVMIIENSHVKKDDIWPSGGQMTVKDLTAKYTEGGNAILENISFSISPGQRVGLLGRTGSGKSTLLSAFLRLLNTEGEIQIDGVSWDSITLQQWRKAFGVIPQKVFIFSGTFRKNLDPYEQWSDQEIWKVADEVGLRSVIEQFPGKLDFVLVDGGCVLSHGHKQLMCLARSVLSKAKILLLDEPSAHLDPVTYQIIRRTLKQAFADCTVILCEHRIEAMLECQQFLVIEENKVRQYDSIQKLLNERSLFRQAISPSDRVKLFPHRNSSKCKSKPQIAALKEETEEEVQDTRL

**Q.** Which results are given for [2H]C12C(=O)N(c3cc(Cl)cc(Cl)c3)C(=O)C1([2H])C1(C(=O)Nc3c(Cl)cc(Cl)cc31)N1CCCC12 (single isomer, unassigned) [Example 70]?
**A.** Nauc @ 3 μM: +++ (NAUC “+++” refers to an observed NAUC >170% of positive control); Nauc @ 10 μM: +++ (NAUC “+++” refers to an observed NAUC >170% of positive control)

**Q.** Which “Nauc @ 3 μM” value does the source give for CC1CC2C3C(=O)N(c4cc(Cl)cc(Cl)c4)C(=O)C3C3(C(=O)Nc4c(Cl)cc(Cl)cc43)N2C1 (single isomer, unassigned) [Example 72] here?
**A.** +++ (NAUC “+++” refers to an observed NAUC >170% of positive control)

**Q.** What about the “Nauc @ 10 μM” value of the same compound?
**A.** + (NAUC “+” refers to an observed NAUC <140% of positive control)

**Q.** With [2H]C12C(=O)N(c3cc(Cl)cc(Cl)c3)C(=O)C1([2H])C1(C(=O)Nc3c(Cl)cc(Cl)cc31)N1C[C@@H](O)CC12 (single isomer, unassigned) [Example 84] as the compound, how does the “Nauc @ 3 μM” value read?
**A.** ++ (NAUC “++” refers to an observed NAUC 170-140% of positive control)

**Q.** And the “Nauc @ 10 μM” value?
**A.** ++ (NAUC “++” refers to an observed NAUC 170-140% of positive control)

**Q.** How did the “Nauc @ 3 μM” value turn out when O=C1C2C3C[C@H](Cl)CN3C3(C(=O)Nc4c(Cl)cc(Cl)cc43)C2C(=O)N1c1cc(Cl)cc(Cl)c1 (single isomer, unassigned) [Example 86] was run?
**A.** + (NAUC “+” refers to an observed NAUC <140% of positive control)

**Q.** What about the “Nauc @ 10 μM” value of the same compound?
**A.** +++ (NAUC “+++” refers to an observed NAUC >170% of positive control)

**Q.** With O=C1C2C3C[C@H](Cl)CN3C3(C(=O)Nc4c(Cl)cc(Cl)cc43)C2C(=O)N1c1cc(Cl)cc(Cl)c1 (single isomer, unassigned) [Example 87] as the compound, how does the “Nauc @ 3 μM” value read?
**A.** +++ (NAUC “+++” refers to an observed NAUC >170% of positive control)

**Q.** And the “Nauc @ 10 μM” value?
**A.** +++ (NAUC “+++” refers to an observed NAUC >170% of positive control)

**Q.** Which results are given for O=C1C2C3C[C@H](Cl)CN3C3(C(=O)Nc4c(Cl)cc(Cl)cc43)C2C(=O)N1c1cc(Cl)cc(Cl)c1 (single isomer, unassigned) [Example 88]?
**A.** Nauc @ 3 μM: + (NAUC “+” refers to an observed NAUC <140% of positive control); Nauc @ 10 μM: +++ (NAUC “+++” refers to an observed NAUC >170% of positive control)

**Q.** COc1cc(Cl)cc(N2C(=O)C3C4CCCN4C4(C(=O)Nc5c(Cl)cc(Cl)cc54)C3C2=O)c1 (single isomer, unassigned) [Example 104] was tested. Which “Nauc @ 3 μM” value did it give?
**A.** + (NAUC “+” refers to an observed NAUC <140% of positive control)

**Q.** And the “Nauc @ 10 μM” value?
**A.** ++ (NAUC “++” refers to an observed NAUC 170-140% of positive control)

**Q.** How did the “Nauc @ 3 μM” value turn out when COc1cc(Cl)cc(N2C(=O)C3C4CCCN4C4(C(=O)Nc5c(Cl)cc(Cl)cc54)C3C2=O)c1 (single isomer, unassigned) [Example 105] was run?
**A.** ++ (NAUC “++” refers to an observed NAUC 170-140% of positive control)

**Q.** What about the “Nauc @ 10 μM” value of the same compound?
**A.** ++ (NAUC “++” refers to an observed NAUC 170-140% of positive control)

**Q.** Which “Nauc @ 3 μM” value does the source give for COc1cc(Cl)cc(N2C(=O)C3C4CCCN4C4(C(=O)Nc5c(Cl)cc(Cl)cc54)C3C2=O)c1 (single isomer, unassigned) [Example 106] here?
**A.** +++ (NAUC “+++” refers to an observed NAUC >170% of positive control)

**Q.** And the “Nauc @ 10 μM” value?
**A.** +++ (NAUC “+++” refers to an observed NAUC >170% of positive control)

**Q.** Which “Nauc @ 3 μM” value does the source give for COc1cc(Cl)cc(N2C(=O)C3C4C[C@H](Cl)CN4C4(C(=O)Nc5c(Cl)cc(Cl)cc54)C3C2=O)c1 (single isomer, unassigned) [Example 107] here?
**A.** +++ (NAUC “+++” refers to an observed NAUC >170% of positive control)

**Q.** And the “Nauc @ 10 μM” value?
**A.** +++ (NAUC “+++” refers to an observed NAUC >170% of positive control)

**Q.** For O=C1C2C3C[C@H](Cl)CN3C3(C(=O)Nc4c(Cl)cc(Cl)cc43)C2C(=O)N1c1cc(Cl)cc(Cl)n1 (single isomer, unassigned) [Example 108], which “Nauc @ 3 μM” value is on record?
**A.** +++ (NAUC “+++” refers to an observed NAUC >170% of positive control)

**Q.** What about the “Nauc @ 10 μM” value of the same compound?
**A.** ++ (NAUC “++” refers to an observed NAUC 170-140% of positive control)

**Q.** For COc1cc(Cl)cc(N2C(=O)C3C4C[C@H](F)CN4C4(C(=O)Nc5c(Cl)cc(Cl)cc54)C3C2=O)c1 (single isomer, unassigned) [Example 110], which “Nauc @ 3 μM” value is on record?
**A.** +++ (NAUC “+++” refers to an observed NAUC >170% of positive control)

**Q.** What about the “Nauc @ 10 μM” value of the same compound?
**A.** +++ (NAUC “+++” refers to an observed NAUC >170% of positive control)

**Q.** How did the “Nauc @ 3 μM” value turn out when COc1cc(Cl)cc(N2C(=O)C3C4C[C@H](Cl)CN4C4(C(=O)Nc5c(Cl)cc(Cl)cc54)C3C2=O)c1 (single isomer, unassigned) [Example 111] was run?
**A.** +++ (NAUC “+++” refers to an observed NAUC >170% of positive control)

**Q.** What about the “Nauc @ 10 μM” value of the same compound?
**A.** +++ (NAUC “+++” refers to an observed NAUC >170% of positive control)

**Q.** For COc1c(Cl)cc(N2C(=O)C3C4CCCN4C4(C(=O)Nc5c(Cl)cc(Cl)cc54)C3C2=O)cc1Cl (single isomer, unassigned) [Example 112], which “Nauc @ 3 μM” value is on record?
**A.** +++ (NAUC “+++” refers to an observed NAUC >170% of positive control)

**Q.** What about the “Nauc @ 10 μM” value of the same compound?
**A.** +++ (NAUC “+++” refers to an observed NAUC >170% of positive control)

**Q.** Which results are given for COc1c(Cl)cc(N2C(=O)C3C4C[C@H](Cl)CN4C4(C(=O)Nc5c(Cl)cc(Cl)cc54)C3C2=O)cc1Cl (single isomer, unassigned) [Example 114]?
**A.** Nauc @ 3 μM: +++ (NAUC “+++” refers to an observed NAUC >170% of positive control); Nauc @ 10 μM: +++ (NAUC “+++” refers to an observed NAUC >170% of positive control)

**Q.** With COc1cc(Cl)cc(N2C(=O)C3C4C[C@H](O)CN4C4(C(=O)Nc5c(Cl)cc(Cl)cc54)C3C2=O)c1 (single isomer, unassigned) [Example 115] as the compound, how does the “Nauc @ 3 μM” value read?
**A.** + (NAUC “+” refers to an observed NAUC <140% of positive control)

**Q.** What about the “Nauc @ 10 μM” value of the same compound?
**A.** ++ (NAUC “++” refers to an observed NAUC 170-140% of positive control)

**Q.** For O=C1C2C3CC(=C(F)F)CN3C3(C(=O)Nc4c(Cl)cc(Cl)cc43)C2C(=O)N1c1cc(Cl)cc(Cl)c1 (single isomer, unassigned) [Example 116], which “Nauc @ 3 μM” value is on record?
**A.** +++ (NAUC “+++” refers to an observed NAUC >170% of positive control)

**Q.** And the “Nauc @ 10 μM” value?
**A.** +++ (NAUC “+++” refers to an observed NAUC >170% of positive control)

**Q.** What does the source list for COc1c(Cl)cc(N2C(=O)C3C4C[C@H](F)CN4C4(C(=O)Nc5c(Cl)cc(Cl)cc54)C3C2=O)cc1Cl (single isomer, unassigned) [Example 118]?
**A.** Nauc @ 3 μM: ++ (NAUC “++” refers to an observed NAUC 170-140% of positive control); Nauc @ 10 μM: ++ (NAUC “++” refers to an observed NAUC 170-140% of positive control)

**Q.** For CC1(C)CC2C3C(=O)N(c4cc(Cl)cc(Cl)c4)C(=O)C3C3(C(=O)Nc4c(Cl)cc(Cl)cc43)N2C1 (single isomer, unassigned) [Example 119], which “Nauc @ 3 μM” value is on record?
**A.** +++ (NAUC “+++” refers to an observed NAUC >170% of positive control)

**Q.** What about the “Nauc @ 10 μM” value of the same compound?
**A.** +++ (NAUC “+++” refers to an observed NAUC >170% of positive control)
